Measured values as given in ChEMBL document CHEMBL3879916, “1-sulfonyl piperidine derivatives as modulators of prokineticin receptors” (2014).

Target: Prokineticin receptor 1 (Homo sapiens, UniProt Q8TCW9)
Assay: Antagonist activity at human PKR1 expressed in RBL2H3 cells assessed as inhibition of prokineticin1-mediated intracellular calcium release preincubated for 10 mins followed by PK1 addition by FLIPR assay
Type: functional, cell-based, RBL-2H3

Prokineticin receptor 1, sequence (Q8TCW9 whole entry): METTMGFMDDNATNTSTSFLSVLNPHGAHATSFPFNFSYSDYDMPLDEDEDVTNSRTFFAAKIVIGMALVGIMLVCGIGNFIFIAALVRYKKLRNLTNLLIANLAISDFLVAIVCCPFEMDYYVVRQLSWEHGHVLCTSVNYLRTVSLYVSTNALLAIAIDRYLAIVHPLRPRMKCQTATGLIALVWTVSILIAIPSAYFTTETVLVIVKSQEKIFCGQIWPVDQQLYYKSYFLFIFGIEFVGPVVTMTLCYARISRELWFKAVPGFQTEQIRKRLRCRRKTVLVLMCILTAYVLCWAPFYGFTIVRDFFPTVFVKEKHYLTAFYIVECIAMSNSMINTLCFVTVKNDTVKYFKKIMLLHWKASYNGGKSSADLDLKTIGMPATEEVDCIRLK

**Q.** Which IC50 does the source give for `Cc1n[nH]c(C)c1S(=O)(=O)N1CCC(=C(F)c2ccc(F)cc2F)CC1` here?
**A.** 1.63 µM
